The source made the active and inactive calls.
Columns and labels:
[1] = target: T1, High affinity choline transporter 1 (Homo sapiens, UniProt Q9GZV3); experiment: human choline transporter blockers, potency – cell-based, 5-point CRC, membrane potential dye, dose response (AID 504840); type: functional
T1 sequence (Q9GZV3 whole entry): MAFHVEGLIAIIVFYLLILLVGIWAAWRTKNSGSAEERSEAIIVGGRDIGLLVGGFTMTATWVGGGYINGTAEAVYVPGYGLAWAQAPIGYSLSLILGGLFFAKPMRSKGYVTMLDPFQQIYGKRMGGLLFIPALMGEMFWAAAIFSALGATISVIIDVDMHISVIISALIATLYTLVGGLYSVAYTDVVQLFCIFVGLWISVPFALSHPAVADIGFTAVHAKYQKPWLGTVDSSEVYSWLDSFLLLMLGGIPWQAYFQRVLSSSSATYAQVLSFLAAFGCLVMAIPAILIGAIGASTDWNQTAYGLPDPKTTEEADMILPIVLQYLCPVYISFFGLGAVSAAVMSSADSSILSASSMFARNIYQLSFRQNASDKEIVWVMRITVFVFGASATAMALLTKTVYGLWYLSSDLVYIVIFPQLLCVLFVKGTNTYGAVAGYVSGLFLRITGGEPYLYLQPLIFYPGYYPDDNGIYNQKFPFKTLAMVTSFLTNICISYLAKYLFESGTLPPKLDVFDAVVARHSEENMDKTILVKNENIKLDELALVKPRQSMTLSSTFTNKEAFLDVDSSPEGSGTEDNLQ

[2] = target: T1, High affinity choline transporter 1; experiment: human choline transporter blockers, potency – cell-based, 10-point CRC, membrane potential dye, dose response (AID 588401); type: functional;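 further: membrane potential dye fluorescence of choline-evoked depolarization via CHT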
[3] = target: Nonstructural protein 1 (Influenza A virus, UniProt Q194T2); type: functional, Influenza A virus (A/California/07/2009(H1N1))
[4] = target: Ras and Rab interactor 1/Tyrosine-protein kinase ABL1 (Homo sapiens, UniProt P00519+Q13671); type: functional;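 further: biochemical TR-FRET dose-response test measuring inhibition of binding between Rin1 and Abl proteins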
[5] = target: T2, Histone-lysine N-methyltransferase NSD2 (Homo sapiens, UniProt O96028); type: biochemical
T2 sequence (O96028 whole entry): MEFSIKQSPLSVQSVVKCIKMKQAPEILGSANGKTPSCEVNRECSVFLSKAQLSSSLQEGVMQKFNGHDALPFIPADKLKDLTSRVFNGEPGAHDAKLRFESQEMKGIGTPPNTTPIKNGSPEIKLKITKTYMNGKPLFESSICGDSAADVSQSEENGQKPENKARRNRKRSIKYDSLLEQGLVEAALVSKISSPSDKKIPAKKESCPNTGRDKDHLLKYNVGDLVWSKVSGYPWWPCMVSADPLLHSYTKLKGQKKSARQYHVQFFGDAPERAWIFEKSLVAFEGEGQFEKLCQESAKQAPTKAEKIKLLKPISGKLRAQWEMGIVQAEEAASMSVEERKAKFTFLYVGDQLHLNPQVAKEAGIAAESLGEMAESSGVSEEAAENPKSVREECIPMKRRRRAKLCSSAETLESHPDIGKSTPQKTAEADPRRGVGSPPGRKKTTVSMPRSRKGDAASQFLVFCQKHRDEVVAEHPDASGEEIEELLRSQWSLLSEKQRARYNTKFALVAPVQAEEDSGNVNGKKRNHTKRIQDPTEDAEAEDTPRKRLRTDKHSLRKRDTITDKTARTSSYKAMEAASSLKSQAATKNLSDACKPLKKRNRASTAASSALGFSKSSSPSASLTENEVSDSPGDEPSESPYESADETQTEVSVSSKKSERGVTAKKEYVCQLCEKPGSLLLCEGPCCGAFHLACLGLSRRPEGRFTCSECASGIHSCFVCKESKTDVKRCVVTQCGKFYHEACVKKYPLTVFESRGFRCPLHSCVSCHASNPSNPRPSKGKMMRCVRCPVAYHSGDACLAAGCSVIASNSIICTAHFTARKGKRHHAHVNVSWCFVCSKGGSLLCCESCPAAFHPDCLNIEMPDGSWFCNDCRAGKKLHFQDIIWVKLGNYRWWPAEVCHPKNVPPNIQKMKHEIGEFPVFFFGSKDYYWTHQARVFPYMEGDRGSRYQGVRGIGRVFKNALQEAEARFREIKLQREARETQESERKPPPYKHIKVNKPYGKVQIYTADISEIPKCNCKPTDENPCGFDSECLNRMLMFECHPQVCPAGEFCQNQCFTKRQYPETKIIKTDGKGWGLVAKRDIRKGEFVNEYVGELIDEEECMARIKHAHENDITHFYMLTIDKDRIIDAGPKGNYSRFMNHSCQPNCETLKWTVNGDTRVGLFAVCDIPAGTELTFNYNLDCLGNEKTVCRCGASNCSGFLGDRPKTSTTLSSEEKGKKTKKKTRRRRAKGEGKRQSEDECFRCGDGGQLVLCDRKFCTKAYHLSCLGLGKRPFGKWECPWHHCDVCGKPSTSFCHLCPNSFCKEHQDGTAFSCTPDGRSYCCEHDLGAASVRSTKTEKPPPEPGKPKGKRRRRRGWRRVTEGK

[6] = target: Adenosylmethionine-8-amino-7-oxononanoate aminotransferase (Mycobacterium tuberculosis, UniProt P9WQ81); experiment: Mycobacterium tuberculosis BioA enzyme inhibitor Measured in Biochemical System Using Plate Reader - 2163-02_Inhibitor_Dose_CherryPick_Activity.; type: functional, Mycobacterium tuberculosis UT205
[7] = target: T3, Replicative DNA helicase DnaB (Mycobacterium tuberculosis, UniProt P9WMR3); experiment: DnaB intein splicing inhibitors, dose response, biochemical, cell-free fluorescence (AID 449749); type: functional
T3 sequence (P9WMR3 whole entry): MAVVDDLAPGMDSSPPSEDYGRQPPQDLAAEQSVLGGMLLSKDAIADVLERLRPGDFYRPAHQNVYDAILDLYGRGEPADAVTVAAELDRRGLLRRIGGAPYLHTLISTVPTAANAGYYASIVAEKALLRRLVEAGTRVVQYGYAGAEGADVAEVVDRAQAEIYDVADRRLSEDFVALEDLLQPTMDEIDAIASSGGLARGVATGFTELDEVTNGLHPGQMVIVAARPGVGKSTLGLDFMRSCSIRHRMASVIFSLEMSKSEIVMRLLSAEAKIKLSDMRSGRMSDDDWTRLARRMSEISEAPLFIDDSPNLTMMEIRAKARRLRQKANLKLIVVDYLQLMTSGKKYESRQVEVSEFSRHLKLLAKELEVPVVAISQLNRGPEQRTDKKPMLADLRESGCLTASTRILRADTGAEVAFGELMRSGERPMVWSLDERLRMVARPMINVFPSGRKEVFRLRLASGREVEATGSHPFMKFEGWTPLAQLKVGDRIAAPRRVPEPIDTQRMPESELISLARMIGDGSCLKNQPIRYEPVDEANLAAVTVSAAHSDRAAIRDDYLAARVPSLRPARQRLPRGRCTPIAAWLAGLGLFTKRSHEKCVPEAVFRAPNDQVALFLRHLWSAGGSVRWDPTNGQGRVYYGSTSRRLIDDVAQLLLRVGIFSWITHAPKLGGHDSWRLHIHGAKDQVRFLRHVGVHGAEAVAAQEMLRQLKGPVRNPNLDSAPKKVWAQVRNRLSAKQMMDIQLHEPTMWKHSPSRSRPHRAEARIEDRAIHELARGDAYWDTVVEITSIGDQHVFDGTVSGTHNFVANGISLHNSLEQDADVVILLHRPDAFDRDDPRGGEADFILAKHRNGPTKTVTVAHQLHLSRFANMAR

[8] = target: T4, Apoptotic protease-activating factor 1 (Homo sapiens, UniProt O14727); type: functional
T4 sequence (O14727 whole entry): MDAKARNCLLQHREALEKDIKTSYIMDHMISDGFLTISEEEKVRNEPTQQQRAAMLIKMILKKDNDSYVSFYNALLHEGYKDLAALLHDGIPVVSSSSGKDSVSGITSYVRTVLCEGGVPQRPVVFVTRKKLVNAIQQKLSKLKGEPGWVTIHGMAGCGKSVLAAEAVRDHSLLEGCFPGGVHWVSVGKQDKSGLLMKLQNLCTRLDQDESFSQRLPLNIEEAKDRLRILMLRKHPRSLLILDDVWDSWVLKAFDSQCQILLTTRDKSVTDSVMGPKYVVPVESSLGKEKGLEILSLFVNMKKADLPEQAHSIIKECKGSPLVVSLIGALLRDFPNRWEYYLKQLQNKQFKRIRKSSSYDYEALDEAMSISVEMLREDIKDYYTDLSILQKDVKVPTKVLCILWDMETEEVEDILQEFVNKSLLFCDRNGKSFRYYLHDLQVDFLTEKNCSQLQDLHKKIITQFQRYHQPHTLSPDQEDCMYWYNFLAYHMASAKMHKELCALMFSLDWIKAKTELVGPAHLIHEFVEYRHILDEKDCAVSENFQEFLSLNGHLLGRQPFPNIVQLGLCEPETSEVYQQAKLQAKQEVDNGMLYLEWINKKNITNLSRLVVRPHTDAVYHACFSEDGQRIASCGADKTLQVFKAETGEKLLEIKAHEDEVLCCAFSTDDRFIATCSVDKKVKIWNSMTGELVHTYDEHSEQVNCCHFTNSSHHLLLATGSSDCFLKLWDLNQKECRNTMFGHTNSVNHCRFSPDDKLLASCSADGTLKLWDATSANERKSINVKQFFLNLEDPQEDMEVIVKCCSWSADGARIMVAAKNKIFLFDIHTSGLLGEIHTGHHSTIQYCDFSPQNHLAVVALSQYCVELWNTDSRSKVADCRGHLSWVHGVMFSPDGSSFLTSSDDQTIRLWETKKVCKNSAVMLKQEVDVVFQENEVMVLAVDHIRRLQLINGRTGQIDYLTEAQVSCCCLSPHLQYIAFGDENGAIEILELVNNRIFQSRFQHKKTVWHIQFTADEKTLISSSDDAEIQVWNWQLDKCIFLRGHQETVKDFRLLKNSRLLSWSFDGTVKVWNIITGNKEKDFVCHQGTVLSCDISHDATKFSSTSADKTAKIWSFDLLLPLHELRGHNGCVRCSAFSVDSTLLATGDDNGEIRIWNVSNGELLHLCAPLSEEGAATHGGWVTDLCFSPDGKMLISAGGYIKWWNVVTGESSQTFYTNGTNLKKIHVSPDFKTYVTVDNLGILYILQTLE

[9] = target: T5, Protein RecA (Mycobacterium tuberculosis, UniProt P9WHJ3); experiment: Fluorescence Cell-Free Homogeneous Dose Retest to Identify Inhibitors of RecA-Intein Splicing Activity. [Related pubchem assays (depositor defined):AID2097, AID2223, AID489010, AID492950]; type: functional
T5 sequence (P9WHJ3 whole entry): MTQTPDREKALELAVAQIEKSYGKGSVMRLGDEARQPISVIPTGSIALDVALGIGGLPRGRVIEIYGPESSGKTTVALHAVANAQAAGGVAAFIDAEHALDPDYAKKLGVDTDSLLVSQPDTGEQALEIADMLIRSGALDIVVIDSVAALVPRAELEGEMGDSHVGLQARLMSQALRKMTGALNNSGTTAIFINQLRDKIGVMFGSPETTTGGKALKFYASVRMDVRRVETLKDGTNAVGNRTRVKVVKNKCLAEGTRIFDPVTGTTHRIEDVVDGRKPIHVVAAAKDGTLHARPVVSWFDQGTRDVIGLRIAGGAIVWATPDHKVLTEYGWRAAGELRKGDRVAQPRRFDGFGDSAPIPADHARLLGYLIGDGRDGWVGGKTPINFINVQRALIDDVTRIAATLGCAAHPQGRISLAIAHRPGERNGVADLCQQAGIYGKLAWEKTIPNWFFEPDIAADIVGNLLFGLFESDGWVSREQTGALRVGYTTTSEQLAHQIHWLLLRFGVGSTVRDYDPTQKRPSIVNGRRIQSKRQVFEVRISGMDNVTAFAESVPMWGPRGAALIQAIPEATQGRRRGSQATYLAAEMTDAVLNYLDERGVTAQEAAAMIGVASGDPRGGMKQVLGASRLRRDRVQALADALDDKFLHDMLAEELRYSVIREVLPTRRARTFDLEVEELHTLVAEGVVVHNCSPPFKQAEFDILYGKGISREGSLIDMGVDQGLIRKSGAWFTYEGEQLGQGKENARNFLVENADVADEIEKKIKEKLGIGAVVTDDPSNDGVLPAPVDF

[10] = target: Tyrosine-protein phosphatase non-receptor type 11 (Homo sapiens, UniProt Q06124); experiment: PTPN11 enzyme inhibitors – biochemical, selectivity assay for STEP inhibitor project, dose response (AID 602367); type: functional; details: read-out: IC50_Mean
[11] = target: Tyrosine-protein phosphatase non-receptor type 5 (Homo sapiens, UniProt P54829); experiment: PTPN5 enzyme inhibition – biochemical, fluorescence intensity, uHTS hits, confirmation (AID 602372); type: functional; details: read-out: IC50_Mean
[12] = target: Dual specificity protein phosphatase 3 (Homo sapiens, UniProt P51452); experiment: VHR phosphatase inhibition, dose response, selectivity assay for STEP inhibitor project, biochemical (AID 602374); type: functional; details: read-out: IC50_Mean
[13] = target: DNA repair and recombination protein RAD54-like (Homo sapiens, UniProt Q92698); experiment: RAD54 Holliday junction migration blockers – biochemical, fluorescence, cherry-picked samples, dose series, confirmation (AID 651657); type: functional
Chain of DNA repair and recombination protein RAD54-like (Q92698 whole entry): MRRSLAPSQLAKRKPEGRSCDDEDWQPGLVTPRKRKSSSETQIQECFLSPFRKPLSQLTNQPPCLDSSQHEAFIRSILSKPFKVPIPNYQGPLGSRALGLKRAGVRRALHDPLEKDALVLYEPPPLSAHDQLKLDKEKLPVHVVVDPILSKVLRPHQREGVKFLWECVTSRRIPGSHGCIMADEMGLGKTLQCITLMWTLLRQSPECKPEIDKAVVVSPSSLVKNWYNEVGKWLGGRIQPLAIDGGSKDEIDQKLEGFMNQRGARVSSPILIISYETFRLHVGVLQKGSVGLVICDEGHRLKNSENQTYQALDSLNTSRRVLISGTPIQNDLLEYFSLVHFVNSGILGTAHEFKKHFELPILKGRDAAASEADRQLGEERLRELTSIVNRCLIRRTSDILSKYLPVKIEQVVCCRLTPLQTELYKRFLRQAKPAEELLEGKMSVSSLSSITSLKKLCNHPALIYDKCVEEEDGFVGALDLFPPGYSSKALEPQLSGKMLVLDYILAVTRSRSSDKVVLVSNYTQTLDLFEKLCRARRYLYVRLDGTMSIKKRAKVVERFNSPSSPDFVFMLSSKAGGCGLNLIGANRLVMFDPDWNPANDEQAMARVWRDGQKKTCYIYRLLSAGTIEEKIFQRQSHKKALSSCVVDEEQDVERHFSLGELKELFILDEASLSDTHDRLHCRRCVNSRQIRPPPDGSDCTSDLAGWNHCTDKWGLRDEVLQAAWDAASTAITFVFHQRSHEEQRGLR

Chain of Adenosylmethionine-8-amino-7-oxononanoate aminotransferase (P9WQ81 whole entry): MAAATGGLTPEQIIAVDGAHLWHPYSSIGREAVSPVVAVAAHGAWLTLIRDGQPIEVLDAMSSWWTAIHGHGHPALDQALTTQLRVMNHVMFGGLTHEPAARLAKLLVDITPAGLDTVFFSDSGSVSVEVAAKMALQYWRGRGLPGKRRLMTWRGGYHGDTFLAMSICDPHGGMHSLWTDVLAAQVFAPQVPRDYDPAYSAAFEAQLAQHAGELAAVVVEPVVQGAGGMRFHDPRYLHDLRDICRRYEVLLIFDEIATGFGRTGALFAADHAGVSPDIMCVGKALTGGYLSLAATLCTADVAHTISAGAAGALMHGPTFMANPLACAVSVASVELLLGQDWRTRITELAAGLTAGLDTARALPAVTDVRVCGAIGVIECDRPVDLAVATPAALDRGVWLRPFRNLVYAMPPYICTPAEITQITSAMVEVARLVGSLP
Chain of Ras and Rab interactor 1/Tyrosine-protein kinase ABL1 (P00519 whole entry): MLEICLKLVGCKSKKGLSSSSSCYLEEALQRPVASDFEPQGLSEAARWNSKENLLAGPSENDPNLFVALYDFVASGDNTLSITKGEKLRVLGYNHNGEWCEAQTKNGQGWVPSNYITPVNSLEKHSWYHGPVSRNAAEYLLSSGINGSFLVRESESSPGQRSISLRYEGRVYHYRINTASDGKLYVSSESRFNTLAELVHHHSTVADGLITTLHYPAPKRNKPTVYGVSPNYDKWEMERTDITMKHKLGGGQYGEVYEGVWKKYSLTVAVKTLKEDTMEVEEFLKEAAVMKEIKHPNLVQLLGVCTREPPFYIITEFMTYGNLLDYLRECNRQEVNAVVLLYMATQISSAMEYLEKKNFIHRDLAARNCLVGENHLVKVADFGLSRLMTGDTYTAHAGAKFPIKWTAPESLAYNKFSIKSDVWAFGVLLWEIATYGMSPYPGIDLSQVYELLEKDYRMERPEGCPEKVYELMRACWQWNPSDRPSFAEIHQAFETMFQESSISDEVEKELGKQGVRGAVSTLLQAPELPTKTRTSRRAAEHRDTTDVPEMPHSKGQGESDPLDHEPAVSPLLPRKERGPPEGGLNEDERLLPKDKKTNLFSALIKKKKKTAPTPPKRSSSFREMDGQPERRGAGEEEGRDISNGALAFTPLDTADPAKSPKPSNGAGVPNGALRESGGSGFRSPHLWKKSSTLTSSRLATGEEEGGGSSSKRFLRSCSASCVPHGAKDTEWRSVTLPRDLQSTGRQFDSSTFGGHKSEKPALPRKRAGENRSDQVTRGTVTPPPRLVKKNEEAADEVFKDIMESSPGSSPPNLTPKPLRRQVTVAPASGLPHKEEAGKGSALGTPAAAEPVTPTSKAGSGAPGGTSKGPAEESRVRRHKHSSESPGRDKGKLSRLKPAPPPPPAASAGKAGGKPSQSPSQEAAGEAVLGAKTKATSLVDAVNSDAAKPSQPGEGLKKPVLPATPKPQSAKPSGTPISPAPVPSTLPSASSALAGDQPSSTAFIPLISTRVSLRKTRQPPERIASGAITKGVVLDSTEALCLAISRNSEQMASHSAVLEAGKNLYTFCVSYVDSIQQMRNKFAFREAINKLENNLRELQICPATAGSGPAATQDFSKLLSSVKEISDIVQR
Chain of Ras and Rab interactor 1/Tyrosine-protein kinase ABL1 (Q13671 whole entry): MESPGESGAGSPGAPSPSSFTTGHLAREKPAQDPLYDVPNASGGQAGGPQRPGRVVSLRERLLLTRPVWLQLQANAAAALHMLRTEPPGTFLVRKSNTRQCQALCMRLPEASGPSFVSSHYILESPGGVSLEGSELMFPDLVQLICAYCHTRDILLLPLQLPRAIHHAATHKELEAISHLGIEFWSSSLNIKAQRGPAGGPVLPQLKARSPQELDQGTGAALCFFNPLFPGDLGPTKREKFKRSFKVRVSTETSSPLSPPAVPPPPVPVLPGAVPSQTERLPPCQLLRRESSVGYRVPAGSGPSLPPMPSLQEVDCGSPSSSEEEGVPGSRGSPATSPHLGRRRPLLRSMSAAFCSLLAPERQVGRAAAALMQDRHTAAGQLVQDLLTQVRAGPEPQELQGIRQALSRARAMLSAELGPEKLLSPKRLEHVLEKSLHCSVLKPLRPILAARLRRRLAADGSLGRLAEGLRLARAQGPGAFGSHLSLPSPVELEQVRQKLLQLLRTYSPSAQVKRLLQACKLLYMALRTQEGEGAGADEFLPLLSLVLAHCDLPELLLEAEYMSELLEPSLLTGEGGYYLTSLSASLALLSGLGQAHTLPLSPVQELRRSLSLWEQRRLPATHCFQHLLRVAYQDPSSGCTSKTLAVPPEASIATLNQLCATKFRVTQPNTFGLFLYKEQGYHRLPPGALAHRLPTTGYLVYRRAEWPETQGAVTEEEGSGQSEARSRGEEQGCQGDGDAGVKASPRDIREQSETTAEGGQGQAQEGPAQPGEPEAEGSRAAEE
Chain of Nonstructural protein 1 (Q194T2 whole entry): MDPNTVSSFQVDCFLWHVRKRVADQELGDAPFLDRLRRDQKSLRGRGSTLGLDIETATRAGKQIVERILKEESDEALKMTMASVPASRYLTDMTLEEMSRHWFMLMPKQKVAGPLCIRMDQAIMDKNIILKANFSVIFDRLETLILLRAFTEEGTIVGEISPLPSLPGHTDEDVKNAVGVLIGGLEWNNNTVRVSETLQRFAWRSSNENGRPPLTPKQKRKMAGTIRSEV
Chain of Dual specificity protein phosphatase 3 (P51452 whole entry): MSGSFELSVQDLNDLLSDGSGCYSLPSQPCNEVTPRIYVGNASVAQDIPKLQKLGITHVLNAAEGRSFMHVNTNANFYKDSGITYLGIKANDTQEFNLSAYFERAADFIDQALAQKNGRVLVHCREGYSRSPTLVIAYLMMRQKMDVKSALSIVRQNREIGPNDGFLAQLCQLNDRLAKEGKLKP
Chain of Tyrosine-protein phosphatase non-receptor type 5 (P54829 whole entry): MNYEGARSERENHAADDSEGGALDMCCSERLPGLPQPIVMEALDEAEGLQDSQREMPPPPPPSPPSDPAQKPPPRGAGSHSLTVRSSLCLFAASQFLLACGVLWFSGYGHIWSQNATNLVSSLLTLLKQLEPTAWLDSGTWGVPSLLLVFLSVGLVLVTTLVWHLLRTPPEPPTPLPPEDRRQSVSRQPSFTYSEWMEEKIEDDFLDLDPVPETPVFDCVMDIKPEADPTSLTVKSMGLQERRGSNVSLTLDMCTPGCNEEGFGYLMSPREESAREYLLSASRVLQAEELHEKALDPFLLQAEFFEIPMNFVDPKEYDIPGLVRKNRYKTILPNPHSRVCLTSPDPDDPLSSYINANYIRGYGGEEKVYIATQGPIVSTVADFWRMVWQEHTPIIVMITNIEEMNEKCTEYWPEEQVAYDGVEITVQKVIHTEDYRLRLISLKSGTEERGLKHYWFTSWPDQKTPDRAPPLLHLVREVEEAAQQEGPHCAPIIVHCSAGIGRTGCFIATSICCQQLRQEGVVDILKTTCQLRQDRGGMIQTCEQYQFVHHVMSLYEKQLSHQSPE
Chain of Tyrosine-protein phosphatase non-receptor type 11 (Q06124 whole entry): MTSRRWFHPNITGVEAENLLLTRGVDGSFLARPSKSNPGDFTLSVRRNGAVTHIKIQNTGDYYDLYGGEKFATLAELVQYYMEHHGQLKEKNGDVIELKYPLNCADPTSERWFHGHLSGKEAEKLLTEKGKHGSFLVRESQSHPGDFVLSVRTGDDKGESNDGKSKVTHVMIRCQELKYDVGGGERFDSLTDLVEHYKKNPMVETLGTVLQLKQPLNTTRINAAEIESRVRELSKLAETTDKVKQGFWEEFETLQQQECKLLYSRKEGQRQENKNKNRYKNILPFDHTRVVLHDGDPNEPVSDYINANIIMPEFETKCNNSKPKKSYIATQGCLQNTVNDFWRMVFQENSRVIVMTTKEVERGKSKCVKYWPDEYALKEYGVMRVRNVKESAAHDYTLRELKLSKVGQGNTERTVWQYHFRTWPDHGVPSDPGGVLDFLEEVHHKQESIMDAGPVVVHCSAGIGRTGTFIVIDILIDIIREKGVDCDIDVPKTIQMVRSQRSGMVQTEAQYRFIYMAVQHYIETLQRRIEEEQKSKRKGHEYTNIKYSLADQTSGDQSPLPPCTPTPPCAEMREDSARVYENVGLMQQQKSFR

SMILES: N#Cc1nc(Cc2cccc3ccccc23)oc1NCCCN1CCOCC1
- IC50 [1]: 3.8 µM (active)
- IC50 [2]: 1.58 µM (active)

SMILES: CNc1nc(SC)nc2ccsc12
- IC50 [1]: 0.743 µM (active)
- IC50 [2]: 1.5 µM (active)

SMILES: Cc1ccc(NC(=O)CCCCCC2NC(=O)NC2C)cc1 (stereo unspecified)
- IC50 [3]: 1.06 µM (active)
- IC50 [4]: 0.0145 µM (active)
- AC50 [5]: 0.358 µM (active)

SMILES: CCOC(=O)c1ccc(N2C(=O)c3[nH]nc(C)c3C2c2ccc(OC)c(OC)c2)cc1 (stereo unspecified)
- AC50 [6]: 0.128 µM (active)

SMILES: COc1ccc(S(=O)(=O)/N=C2\C=C(NS(=O)(=O)c3ccccc3)C(=O)c3ccccc32)cc1
- AC50 [7]: 1.89 µM (active)
- IC50 [8]: 16.6 µM (active)
- EC50 [9]: 1.58 µM (active)

SMILES: COc1ccc(NC(=O)c2cc(=O)c3ccccc3o2)cc1Cl
- IC50 [10]: 2.82 µM (active)
- IC50 [11]: > 80 µM (inactive)
- IC50 [12]: 4.6 µM (active)

SMILES: O=C(Nc1cccnc1)c1cc2nc(C3CC3)cc(C(F)(F)F)n2n1
- AC50 [6]: 0.144 µM (active)

SMILES: CCN1CCN(c2cc(C)c3cc(NC(S)=NCCN(C)C)ccc3n2)CC1
- AC50 [13]: 24.3 µM (active)

— ChEMBL document CHEMBL1201862, “PubChem BioAssay data set” (2004)
